Consider 4 compounds from article PMC8231556, “Inhibiting Endothelial Cell Function in Normal and Tumor Angiogenesis Using BMP Type I Receptor Macrocyclic Kinase Inhibitors” (Cancers, 2021).

For data set [1], the system named is EA.hy926 cells. Kind of data set: MTS assay. Type of data set: cell-based, human. To be noted: 0.5 μM, day 1, 2 and 3. The procedure: The MTS assay was used to measure the metabolic activity and viability of the cells. Around 5 × 10^3 EA.hy926 cells were seeded and cultured overnight in a 96-well plate and then cultured in the normal growth medium, which contained the indicated compounds and ligands. The MTS tetrazolium was measured according to the manufacturer’s protocol using an MTS Assay Kit (G3580, Promega). In brief, after exposing the cells in set conditions for 1, 2, and 3 days, 20 µL of MTS reagent was added to 100 μL cell growth medium per well and incubated for 4 h at 37 °C. Thereafter, absorbance at 490 nm was measured using a PerkinElmer […]. All the experiments were repeated at least three times, and representative experiments are shown.

In data set [2] the test system is MDA-MB-231 breast cancer cell-induced angiogenesis. Kind of data set: Tumor angiogenesis in zebrafish (MDA-MB-231 xenograft). It is filed as in vivo. To be noted: 0.5 µM, 3 days, MDA-MB-231 in perivitelline space. As to the method: Two days post fertilization (dpf), four hundred mCherry-labeled human breast cancer MDA-MB-231 cells were injected into the perivitelline space of Tg (fli:EGFP) zebrafish embryos as previously described. The properly injected zebrafishes were randomly divided into five groups, and each group contained at least 30 embryos. […] The egg water was refreshed daily, and the abnormal embryos were removed. After 3 days, the embryos were fixed in 4% PFA for 2 h at room temperature and stored at 4 °C in PBS. The tumor cell-induced angiogenesis in the perivitelline space was imaged with an Andor Dragonfly 500 spinning disk confocal using 488 nm and 561 nm lasers. At least ten embryos per group were randomly selected and scanned. The experiments were repeated twice with similar results. Tumor angiogenesis was quantified using ImageJ, and the relative vasculature density was calculated according to the following formula: Relative vasculature density (%) = 100% × (Vessel intensity within the perivitelline space)/(tumor cells intensity within the perivitelline space).

The next data set has as its target ACVR2A (Homo sapiens, UniProt P27037). Briefly: radiometric protein kinase assay, affinity (Kd). It is filed as binding. As to the method: The binding interaction profile of the compounds for ALK1–6, ACVR2A, ACVR2B, and TGFβR2 was determined by using radiometric protein kinase assay. For each compound, ten different concentrations (from 3 × 10^−6 M to 9 × 10^−11 M) were used in the protein kinase reaction. The inhibitor binding constants (Kd values) were calculated based on the 10 corresponding residual activities for each compound using Prism 5.04 (Graphpad, San Diego, CA, USA) according to the following formula:Kd = ([K][I]/[C]) where [K] = molar concentration of non-inhibitor bound kinase at equilibrium, [I] = molar concentration of the free inhibitor at equilibrium, [C] = molar concentration of kinase-inhibitor complex at equilibrium.

Data set [3] concerns EA.hy926 cells. Kind of data set: Scratch wound migration assay. It is filed as cell-based, human. To be noted: 0.5 µM, 24 h; for effect on FBS-induced EC migration: 1% FBS; for effect on BMP9-induced EC migration: BMP9 1 ng/mL; for effect on VEGF-induced EC migration: VEGF 15 ng/mL. As to the method:
Approximately 5 × 10^4 EA.hy926 cells/well were seeded in a 96-well microplate Essen ImageLock™ (4379, Essen Bioscience, Ann Arbor, MI, USA) and cultured overnight. Then homogeneous 700–800 micron-wide scratch wounds were made using a WoundMaker™ device (4563, Essen Bioscience, Ann Arbor, MI, USA) containing 96 pins. The compounds and/or ligands were added to each well in 100 µL of fresh serum-free medium. Each group contained 6 replicates. Real-time pictures were acquired every 4 h by the IncuCyte ZOOM (Essen Bioscience) to track the wound closure. The wound density was analyzed using the software package provided by the manufacturer and normalized to the wound width at the start of the experiment. All the experiments were repeated at least three times, and representative results are shown.

The next data set concerns the target T1, CDK9_cyclinT1 (Homo sapiens, UniProt P50750).
T1 construct: purchased Proqinase, Germany
Kind of data set: radiometric kinase profiling (33 PanQinase). It is filed as biochemical. To be noted: read-out: Inhibitory effect (%) CDK9_cyclinT1. An outline of the steps: (§1)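 Enzyme/substrate mixes were incubated with [γ-33P]-ATP and compound (added as a 0.1 μM solution in 10% DMSO) at 30 °C for 60 min, then stopped with H3PO4 and washed with NaCl. 33P incorporation was scintillation-counted, and residual activity (%) was normalized to untreated control and background.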

The next data set has as its target T2, IKBKB (Homo sapiens, UniProt O14920).
T2 construct: purchased ProQinase (33PanQinase Activity Assay)
T2 sequence (O14920 1-756): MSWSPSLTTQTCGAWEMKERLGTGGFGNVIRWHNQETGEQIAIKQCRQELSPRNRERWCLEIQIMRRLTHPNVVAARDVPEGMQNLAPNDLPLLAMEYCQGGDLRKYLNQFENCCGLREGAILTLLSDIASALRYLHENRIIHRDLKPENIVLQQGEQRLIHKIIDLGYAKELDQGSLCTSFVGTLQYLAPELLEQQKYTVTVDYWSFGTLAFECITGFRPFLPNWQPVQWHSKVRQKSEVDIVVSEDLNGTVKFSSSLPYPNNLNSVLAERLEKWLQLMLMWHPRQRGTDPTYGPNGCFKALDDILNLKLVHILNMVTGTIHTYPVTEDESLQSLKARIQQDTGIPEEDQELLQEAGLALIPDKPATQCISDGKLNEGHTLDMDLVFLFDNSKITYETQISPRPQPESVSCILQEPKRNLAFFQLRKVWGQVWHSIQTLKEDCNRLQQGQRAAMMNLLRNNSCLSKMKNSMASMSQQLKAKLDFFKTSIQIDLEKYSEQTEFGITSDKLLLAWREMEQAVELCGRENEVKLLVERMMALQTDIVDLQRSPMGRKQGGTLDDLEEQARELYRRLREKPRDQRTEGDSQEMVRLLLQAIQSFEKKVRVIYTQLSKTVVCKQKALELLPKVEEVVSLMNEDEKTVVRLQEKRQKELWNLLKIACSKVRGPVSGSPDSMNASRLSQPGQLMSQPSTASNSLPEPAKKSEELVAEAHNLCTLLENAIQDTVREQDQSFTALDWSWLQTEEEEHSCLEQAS
Kind of data set: radiometric kinase profiling (33 PanQinase). Particulars: read-out: Inhibitory effect (%) IKBKB. It is filed as biochemical. Put shortly:
as §1

Sequence of ACVR2A (P27037 20-513): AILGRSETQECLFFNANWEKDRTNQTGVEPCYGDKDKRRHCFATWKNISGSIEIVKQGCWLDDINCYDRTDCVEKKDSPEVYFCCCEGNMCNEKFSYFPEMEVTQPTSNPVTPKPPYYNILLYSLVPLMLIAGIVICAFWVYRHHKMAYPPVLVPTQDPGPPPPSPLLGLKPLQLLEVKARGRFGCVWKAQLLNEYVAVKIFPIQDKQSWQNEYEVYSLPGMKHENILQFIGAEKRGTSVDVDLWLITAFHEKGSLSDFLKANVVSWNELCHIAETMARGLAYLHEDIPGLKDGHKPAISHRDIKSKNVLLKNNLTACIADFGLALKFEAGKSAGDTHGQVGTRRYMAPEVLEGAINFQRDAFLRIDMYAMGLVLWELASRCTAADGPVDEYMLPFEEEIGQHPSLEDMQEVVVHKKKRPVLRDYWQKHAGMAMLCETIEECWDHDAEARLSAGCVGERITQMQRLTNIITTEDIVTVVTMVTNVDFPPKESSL
T1 sequence (P50750 whole entry): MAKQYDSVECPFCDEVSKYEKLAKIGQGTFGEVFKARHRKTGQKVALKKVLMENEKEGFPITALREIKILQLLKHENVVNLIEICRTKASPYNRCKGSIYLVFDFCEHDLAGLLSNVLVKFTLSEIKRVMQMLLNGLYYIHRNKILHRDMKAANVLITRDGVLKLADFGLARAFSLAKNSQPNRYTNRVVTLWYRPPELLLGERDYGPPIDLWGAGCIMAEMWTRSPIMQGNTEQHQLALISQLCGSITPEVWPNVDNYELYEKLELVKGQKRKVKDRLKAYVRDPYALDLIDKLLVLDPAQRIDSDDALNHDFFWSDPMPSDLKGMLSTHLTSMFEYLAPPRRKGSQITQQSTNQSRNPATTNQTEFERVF
T1 sequence (O60563 whole entry partner): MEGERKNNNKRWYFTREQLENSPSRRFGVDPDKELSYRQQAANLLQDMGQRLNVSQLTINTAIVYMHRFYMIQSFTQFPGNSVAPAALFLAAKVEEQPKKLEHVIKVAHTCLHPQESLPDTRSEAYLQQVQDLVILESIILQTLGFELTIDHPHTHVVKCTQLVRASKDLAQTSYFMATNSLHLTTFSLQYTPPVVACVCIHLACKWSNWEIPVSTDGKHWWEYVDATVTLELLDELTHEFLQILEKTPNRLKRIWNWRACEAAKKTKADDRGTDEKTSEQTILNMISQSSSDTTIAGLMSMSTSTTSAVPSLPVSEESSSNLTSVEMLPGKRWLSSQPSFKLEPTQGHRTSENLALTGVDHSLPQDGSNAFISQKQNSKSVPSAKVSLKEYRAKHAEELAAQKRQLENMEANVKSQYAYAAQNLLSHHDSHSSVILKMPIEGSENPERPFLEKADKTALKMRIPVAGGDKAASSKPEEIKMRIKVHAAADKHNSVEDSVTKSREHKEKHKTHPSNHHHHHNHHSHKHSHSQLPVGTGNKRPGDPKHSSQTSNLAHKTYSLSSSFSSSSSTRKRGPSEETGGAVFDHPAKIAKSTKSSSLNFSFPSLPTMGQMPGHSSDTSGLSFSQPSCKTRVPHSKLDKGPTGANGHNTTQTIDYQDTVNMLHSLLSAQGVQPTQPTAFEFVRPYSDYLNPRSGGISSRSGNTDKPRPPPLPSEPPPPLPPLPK

Consider `CNC(=O)c1ccccc1Sc1ccc2c(/C=C/c3ccccn3)n[nH]c2c1` [Axitinib, reference compound], for which the “effect on EA.hy926 cell viability (MTS)” value in the data set on EA.hy926 cells [1] was “no significant effects”. Moreover, the “effect on cancer cell-induced angiogenesis (relative vasculature density)” value (shortened to “effect … (relative vasculature density)”) in data set [2] is given as “markedly inhibited”.
As for `c1ccc2c(-c3cnn4cc(-c5ccc(N6CCNCC6)cc5)cnc34)ccnc2c1` [LDN-193189, reference compound], binding at ACVR2A was put at a Kd of 11 nM. In addition, the “effect on EA.hy926 cell viability (MTS)” value in the data set on EA.hy926 cells [1] is “markedly attenuated”. In the data set on EA.hy926 cells [3], the “effect on FBS-induced EC migration” value is given as “did not affect”, the “effect on BMP9-induced EC migration” value is reported as “significantly inhibited” and the “effect on VEGF-induced EC migration” value is listed as “no inhibitory effect”. Also, the inhibition at 0.1 µM on CDK9_cyclinT1 was -26.7%. At IKBKB, the inhibition at 0.1 µM turned out to be 1.34%.
Regarding `CN1CCc2cccc(c2)Nc2nccc(n2)N2CCCc3cc(ccc32)C1` [OD16], at ACVR2A, the affinity, expressed as Kd, was 110 nM. Further, in the data set on EA.hy926 cells [1], the “effect on EA.hy926 cell viability (MTS)” value was “no significant effects”. In addition, in the data set on EA.hy926 cells [3], the “effect on FBS-induced EC migration” value is reported as “did not affect”, the “effect on BMP9-induced EC migration” value was “significantly inhibited” and the “effect on VEGF-induced EC migration” value was “antagonized”. Further, the “effect … (relative vasculature density)” value in data set [2] is “significantly inhibited”. For the same compound, the inhibition at 0.1 µM on CDK9_cyclinT1 stood at 54.2%. Besides, the inhibition at 0.1 µM at IKBKB amounted to 1.32%.
`CN1CCC(=O)NCCNc2ccn3ncc(c3n2)-c2cccc(c2)C1` [OD29]: at ACVR2A, binding was characterised by a dissociation constant (Kd) of 1240 nM. The “effect on EA.hy926 cell viability (MTS)” value in the data set on EA.hy926 cells [1] is reported as “no significant effects”. Further, in the data set with EA.hy926 cells [3], the “effect on FBS-induced EC migration” value is recorded as “effective in suppressing”, the “effect on BMP9-induced EC migration” value is reported as “significantly inhibited” and the “effect on VEGF-induced EC migration” value was “antagonized”. For the same compound, the “effect … (relative vasculature density)” value in data set [2] is recorded as “significantly inhibited”. In addition, the inhibition at 0.1 µM at CDK9_cyclinT1 was -2.77%. Further, the inhibition at 0.1 µM on IKBKB is -9.1%.
